# From patent EP0642790A2, “Alkali citrates and their use as medicaments, especially against arterosclerosis” (MADAUS AG, priority 1993, dated 1995)
# Read-outs that look alike come from different tables or passages of the source.
# How the values were obtained:
# [1] = system: Ablagerungen in Aortasegmenten; experiment: Calcification (deposit formation) of rat aorta segments in diffusion chambers implanted into the abdominal cavity of rats; histology and morphometry; assay type: in vivo, Ratten (Sprague-Dawley-Ratten); conditions: for Fläche (Flächenausdehnung der Ablagerungen) / Minimierung der Flächenausdehnung der Ablagerungen im Vergleich zur Kontrolle: 2,1 mmol Citrat per day orally; for Fläche (Flächenausdehnung der Ablagerungen) / Dicke (Ablagerungsschichtdicke) / Minimierung der Flächenausdehnung der Ablagerungen im Vergleich zur Kontrolle: 22 days; for Fläche (Flächenausdehnung der Ablagerungen): Kontrolle 240; for histologisch-lichtmikroskopische Untersuchung der Querschnitte der Aortaabschnitte: Kontrolle: pronounced deposit formation; for Abnahme der Ablagerungsschichtdicke im Vergleich zu der Kontrolle (Faktor): factor versus Kontrolle (55 µm); for relative Volumina %: relative to Kontrolle = 100; for relative Volumina: thickness multiplied by area, Kontrolle 13200; for Dicke (Ablagerungsschichtdicke): 2,1 mmol Citrat per day orally in two doses, maximal deposit layer thickness by ocular micrometer, Kontrolle 55
# Description: (§1) Pentobarbital betäubten Ratten (Sprague-Dawley-Ratten) wurde die Aorta aseptisch entnommen, in acht 5 mm große Segmente geschnitten und in sterile Diffusionskammern (Fa. Millipore GmbH, Eschborn), mit einem Durchmesser von 14 mm und einer Porengröße von 0,22 µm fixiert. Jeweils 2 Kammern wurden in die Bauchhöhle einer Ratte implantiert. Die Versuchsgruppen bestanden aus mindestens 7 Ratten.
# Folgende wäßrige Citrat-Lösungen wurden oral appliziert:
# (§2) Jedem Versuchstier wurden pro Tag 2,1 mmol Citrat oral in zwei gleichen Dosen appliziert, nach 22 Tagen die beiden Diffusionskammern entnommen und die Aorta-Abschnitte licht-, elektronenmikroskopisch, röntgenspektrographisch sowie elementar-analytisch untersucht. Zur histologischen Untersuchung wurden die Gewebeabschnitte in 8% Formalin fixiert, die Aortaabschnitte für die lichtmikroskopischen Untersuchung nach Kossa mit Hämatoxylin und Eosin gefärbt sowie diejenigen zur elektronenmikroskopischen Untersuchung in 2,5% Glutaraldehyd und anschließend in 1% Osmiumtetroxyd fixiert. Die Bestimmung der maximalen Ablagerungsschichtdicke erfolgte mittels Okularmikrometer und die Flächenausdehnung der Ablagerungsschicht der jeweiligen Aortasegmente wurden nach bekannten Methoden ermittelt.
# [2] = set-up: species or system Ratten (Sprague-Dawley-Ratten); conditions: rat, in vivo
# Description: as §1, §2
# Das bedeutet, daß die Verstoffwechslung erhöhter Gaben von KNC, KC oder NC im Organismus nicht zu einer Veränderung der Serumzusammensetzung führt und daß daher die Nierenfiltration aufgrund der im Normbereich befindlichen Fraktionen der ultrafiltrierbaren und ionablen Fraktion des Serums nicht beeinträchtigt wird.
# Um die Wirkung der Applikationen von KNC, NC und KC auf den Hormonhaushalt zu überprüfen, wurde die Konzentration von PTH im Blut analysiert.
# [3] = system: Aortasegmenten; experiment: Mineral content and calcium/phosphorus quotient in the implanted aorta segments; assay type: in vivo, Ratten (Sprague-Dawley-Ratten); conditions: for Calcium, Konzentration in Aortasegmenten: mean (range of measured values), Kontrolle 4,77; for Magnesium, Konzentration in Aortasegmenten / Phosphor, Konzentration in Aortasegmenten: mean (range); for Magnesium, Konzentration in Aortasegmenten: Kontrolle 0,20; for Phosphor, Konzentration in Aortasegmenten: Kontrolle 4,47
# Description: as §1, §2
# [4] = set-up: species or system Ratten (Sprague-Dawley-Ratten); conditions: rat, in vivo; remark: listed apart in the source
# Description: as §1, §2
# Der Umstand, daß Alkalicitrate ohne Nebenwirkungen im Gegensatz zu bekannten o.g. Medikamente auf die Nierentätigkeit ist, ergibt sich auch aus der Bestimmung der Urinzusammensetzung [Tabelle (2B)). Die Konzentrationen von beispielsweise cAMP unterschieden sich nur unwesentlich von denen der Kontrolle.
Substance,Fläche (Flächenausdehnung der Ablagerungen) [1],histologisch-lichtmikroskopische Untersuchung der Querschnitte der Aortaabschnitte [1],Abnahme der Ablagerungsschichtdicke im Vergleich zu der Kontrolle (Faktor) [1],relative Volumina % [1],relative Volumina [1],Calcium [2],Calcium/ Protein [2],Citrat [2],Ges.CO2 [2],Ges.Protein [2],Kreatinin [2],PTH [2],"arteriell-venöse pH-Wert, Konzentrationen an Gesamt-CO₂, Citrat, Magnesium und Phosphor im Blut [2]",pH [2],"Calcium, Konzentration in Aortasegmenten [3]","Magnesium, Konzentration in Aortasegmenten [3]","Phosphor, Konzentration in Aortasegmenten [3]",Citrat [4],Magnesium [4],cAMP [4],further results
Na₃C₆H₅O₇ x 2 H₂O [NC],159,gleichmäßig verteilte ohne besondere Erhebungen gestaltete Ablagerungsschicht,> 2,31%,4134,"2,20 (2,04-2,30)^3 mmol/l",46 (42-50) µmol/g,171 (140-212) µmol/l,"40,9 (29,6-51,8) mmol/g","48,3 (44,8-55,3)^2 g/l","31,8 (30,1-33,6)^1 µmol/l",200-415,nicht verändert,"7,43 (7,35-7,49)","4,20 (2,61-10,90) mmol/g","0,28 (0,20-0,33)^1 mmol/g","6,35 (3,34-14,60) mmol/g","19,7 (15,8-30,4)^2 µmol/g","4,0 (2,6-8,0)^3 µmol/mg","13,5 (12,1-14,2) nmol/mg",
K₆Na₆H₃(C₆H₅O₇)₅ x 2 H₂O [KNC],131,"gleichmäßig gestaltete (ohne besondere Erhebungen), stark verringerte Plaqueschicht","2,4",23%,3013,"2,27 (2,22-2,33)^1 mmol/l",45 (40-47) µmol/g,164 (55-244) µmol/l,"40,9 (36,9-45,1) mmol/g","50,7 (47,5-57,0)^2 g/l","30,9 (15,9-35,4)^2 µmol/l",200-553,nicht verändert,"7,39 (7,34-7,43)","4,93 (3,40-7,16) mmol/g",,"6,80 (2,09-10,51)^1 mmol/g","20,0 (13,2-30,3)^1 µmol/g","3,7 (1,4-8,0)^3 µmol/mg","11,6 (9,0-15,9) nmol/mg","Dicke (Ablagerungsschichtdicke) [1]: 23 µm; Minimierung der Flächenausdehnung der Ablagerungen im Vergleich zur Kontrolle [1]: 54%; Ablagerungsdicke im Gegensatz zur Kontrolle ([1]; thickness as percent of Kontrolle): < 55%; PTH-Level im Blut, Unterschied zur Kontrolle [2]: keine Unterschiede; Magnesium in Aortasegmenten, Vergleich der Gruppen ([3]; in words): höchsten Magnesiumanstieg"
K₃C₆H₅O₇ x 1 H₂O [KC],98,gleichmäßig verteilte ohne besondere Erhebungen gestaltete Ablagerungsschicht,,25%,3234,"2,27 (2,20-2,43)^1 mmol/l",44 (42-46) µmol/g,163 (96-248) µmol/l,"45,0 (39,2-50,8) mmol/g","51,0 (48,3-53,3)^2 g/l","31,8 (25,6-39,8) µmol/l",200-468,nicht verändert,"7,39 (7,31-7,45)","5,09 (3,15-10,81) mmol/g","0,28 (0,20-0,43)^2 mmol/g","7,66 (2,97-17,74) mmol/g","22,0 (11,3-25,0)^2 µmol/g","3,4 (1,8-9,1)^3 µmol/mg","12,9 (9,9-16,0) nmol/mg",Dicke (Ablagerungsschichtdicke) [1]: 33 µm; Minimierung der Flächenausdehnung der Ablagerungen im Vergleich zur Kontrolle [1]: 41%
